Results as given in patent publication US20070141641A1, “Compositions & methods for reformulating biological membranes for arrays” (priority 2003, published 2007).

Legend:
[1] = test system: MOTR, NTR1, ORL1, OP1 receptor microspots; assay: GPCR membrane microarray, labeled-ligand cocktail binding with or without telenzepine, other receptor microspots; conditions: 1 μM telenzepin, FIG. 1B
Description: (§1) FIG. 1A and FIG. 1B are false-color fluorescence images of two membrane microarrays made using six different GPCR-membrane preparations (from left to right, they are HEK cell membrane as control, muscarinic receptor subtype 1 (M1), motilin receptor (MOTR), neurotensin receptor subtype 1 (NTR1), opioid receptor like subtype 1 (ORL1) and delta 2 opioid receptor (OP1)).
(§2) FIGS. 1A & 1B are false-color fluorescence image of a membrane microarray made using six different GPCR-membrane preparations. The images, in Cy5 to Cy3 ratio, are taken after the array is assayed with a binding buffered solution containing a mixture or cocktail solution of labeled ligands. […] FIGS. 1A and 1B are, respectively, in the absence and presence of 1 μM telenzepin. Before array fabrication, all receptor membranes obtained from commercial vendors are re-formulated using a standardized ink containing: ˜20 mM Tris-HCl, pH 7.4, ˜10 mM MgCl2, ˜10% sucrose, 5% glycerol, 0.5% BSA, total membrane proteins in the range of 1 to 3 mg/ml.

[2] = molecular target: T1, muscarinic receptor subtype 1 (M1) (Homo sapiens, UniProt P11229); assay: GPCR membrane microarray, labeled-ligand cocktail binding with or without telenzepine, M1 microspots; conditions: 1 μM telenzepin; cocktail with 2 nM Cy3-B-telenzepine; FIG. 1B
T1 sequence (P11229 1-460): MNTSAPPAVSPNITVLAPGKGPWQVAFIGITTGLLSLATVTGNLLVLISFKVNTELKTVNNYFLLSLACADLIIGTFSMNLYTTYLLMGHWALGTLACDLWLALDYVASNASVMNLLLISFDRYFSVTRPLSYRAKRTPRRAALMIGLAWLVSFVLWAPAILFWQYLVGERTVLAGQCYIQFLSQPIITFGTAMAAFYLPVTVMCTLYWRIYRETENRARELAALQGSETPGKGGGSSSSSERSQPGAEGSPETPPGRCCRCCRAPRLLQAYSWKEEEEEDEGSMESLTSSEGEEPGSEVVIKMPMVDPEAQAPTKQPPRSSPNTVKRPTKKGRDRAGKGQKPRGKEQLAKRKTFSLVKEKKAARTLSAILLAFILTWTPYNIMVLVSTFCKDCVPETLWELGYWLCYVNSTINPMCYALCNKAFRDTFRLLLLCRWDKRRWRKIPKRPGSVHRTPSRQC
Description: as §1, §2

Cc1scc2c1N(C(=O)CN1CCN(C)CC1)c1ccccc1NC2=O [telenzepine]
inhibition of labeled ligand binding to other receptor microspots [1]: not any other receptor microspots
inhibition of labeled ligand binding to M1 microspots [2]: specifically inhibits the binding of labeled ligand to M1 microspots
